From patent US20250115569A1, “SULFONAMIDE COMPOUNDS FOR THE TREATMENT OF NEUROLOGICAL CONDITIONS” (LARIO THERAPEUTICS LIMITED, priority 2021, published 2025) come the findings set out here.

Chain of Cav2.3 (Q15878 whole entry, looked up): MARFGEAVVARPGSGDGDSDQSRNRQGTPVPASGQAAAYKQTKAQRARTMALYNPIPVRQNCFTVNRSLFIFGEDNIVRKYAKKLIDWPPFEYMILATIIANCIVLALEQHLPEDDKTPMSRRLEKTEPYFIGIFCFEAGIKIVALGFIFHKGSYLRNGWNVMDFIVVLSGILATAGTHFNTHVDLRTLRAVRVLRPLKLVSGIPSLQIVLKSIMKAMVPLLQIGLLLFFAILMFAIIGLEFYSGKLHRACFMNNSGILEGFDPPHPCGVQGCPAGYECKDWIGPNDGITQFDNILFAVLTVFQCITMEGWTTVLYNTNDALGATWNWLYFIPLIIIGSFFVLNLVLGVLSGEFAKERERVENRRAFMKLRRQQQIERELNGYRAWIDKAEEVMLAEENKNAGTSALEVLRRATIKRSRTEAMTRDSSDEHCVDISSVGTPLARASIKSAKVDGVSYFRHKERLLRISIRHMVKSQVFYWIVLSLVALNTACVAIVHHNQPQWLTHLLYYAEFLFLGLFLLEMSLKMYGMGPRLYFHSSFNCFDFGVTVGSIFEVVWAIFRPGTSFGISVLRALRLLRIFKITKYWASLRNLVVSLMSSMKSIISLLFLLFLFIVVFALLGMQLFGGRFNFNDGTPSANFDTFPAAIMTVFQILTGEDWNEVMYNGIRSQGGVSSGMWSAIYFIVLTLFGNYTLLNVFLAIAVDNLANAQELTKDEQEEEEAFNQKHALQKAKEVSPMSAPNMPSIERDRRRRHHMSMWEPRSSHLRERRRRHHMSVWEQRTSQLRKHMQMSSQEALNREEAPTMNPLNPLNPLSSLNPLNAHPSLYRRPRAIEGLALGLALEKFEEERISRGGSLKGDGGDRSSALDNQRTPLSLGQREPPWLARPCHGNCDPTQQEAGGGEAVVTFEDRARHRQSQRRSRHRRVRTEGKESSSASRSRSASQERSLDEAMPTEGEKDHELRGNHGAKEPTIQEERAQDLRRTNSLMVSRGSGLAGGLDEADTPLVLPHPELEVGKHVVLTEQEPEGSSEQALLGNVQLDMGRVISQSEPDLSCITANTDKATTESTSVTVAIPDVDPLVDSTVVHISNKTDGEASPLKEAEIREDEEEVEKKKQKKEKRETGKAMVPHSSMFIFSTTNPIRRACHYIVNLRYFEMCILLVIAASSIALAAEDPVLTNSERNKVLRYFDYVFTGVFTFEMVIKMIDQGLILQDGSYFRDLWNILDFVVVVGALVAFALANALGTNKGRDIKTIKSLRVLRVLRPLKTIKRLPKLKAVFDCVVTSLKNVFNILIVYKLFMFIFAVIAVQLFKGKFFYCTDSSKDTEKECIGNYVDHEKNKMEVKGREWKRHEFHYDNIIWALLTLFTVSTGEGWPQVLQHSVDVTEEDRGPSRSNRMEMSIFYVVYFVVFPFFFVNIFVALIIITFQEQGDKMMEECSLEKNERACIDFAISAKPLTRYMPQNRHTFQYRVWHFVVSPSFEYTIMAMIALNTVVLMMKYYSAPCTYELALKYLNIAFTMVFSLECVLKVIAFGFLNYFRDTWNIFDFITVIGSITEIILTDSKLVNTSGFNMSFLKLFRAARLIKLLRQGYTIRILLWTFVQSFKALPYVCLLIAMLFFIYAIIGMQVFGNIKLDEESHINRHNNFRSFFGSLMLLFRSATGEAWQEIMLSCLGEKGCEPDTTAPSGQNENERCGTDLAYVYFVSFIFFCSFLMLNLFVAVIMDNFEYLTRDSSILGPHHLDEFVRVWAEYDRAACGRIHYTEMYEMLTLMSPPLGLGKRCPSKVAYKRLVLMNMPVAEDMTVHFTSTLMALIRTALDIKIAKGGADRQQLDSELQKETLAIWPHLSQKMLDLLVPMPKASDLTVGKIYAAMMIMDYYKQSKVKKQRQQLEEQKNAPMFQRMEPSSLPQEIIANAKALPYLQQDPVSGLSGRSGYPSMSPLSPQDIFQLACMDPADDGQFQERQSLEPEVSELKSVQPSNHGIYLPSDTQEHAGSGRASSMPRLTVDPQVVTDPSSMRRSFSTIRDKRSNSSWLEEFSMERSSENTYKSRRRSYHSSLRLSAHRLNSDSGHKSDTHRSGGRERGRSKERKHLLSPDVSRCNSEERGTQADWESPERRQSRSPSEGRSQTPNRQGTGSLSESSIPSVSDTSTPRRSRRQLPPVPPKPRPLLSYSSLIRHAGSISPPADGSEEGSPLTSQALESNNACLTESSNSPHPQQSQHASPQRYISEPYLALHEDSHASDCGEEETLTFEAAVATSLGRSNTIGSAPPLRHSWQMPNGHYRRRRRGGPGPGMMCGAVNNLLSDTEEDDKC

The target of one assay is Cav2.3 (Homo sapiens, UniProt Q15878). Briefly: Human Cav2.3 channel calcium-influx assay. In kind it is cell-based. The note with it: Fluo8 fluorescence, HEK-293 T-Rex/Kir2.1/Cav2.3e cells, without pluronic acid, read-out: Cav2.3 (pIC50) (converted). Summed up:
(§1)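 HEK-293 T-Rex/Kir2.1 cells with doxycycline (0.2 μg/mL)-inducible Cav2.3e plus Cavβ4-α2δ1, loaded with Fluo8 NW in 0 mM K+ Tyrode's. Compounds (8 points, top 30 μM, half-log, 0.3% final DMSO, n=4) preincubated 3 min at RT, then depolarized with 20 mM KCl/2 mM CaCl2 (final); fluorescence read 130 s.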
For the compound `COc1ccc([C@@H](N(C)S(=O)(=O)c2cn3ccncc3n2)C(F)(F)F)cc1` [Example 196, (R)—N-methyl-N-(2,2,2-trifluoro-1-(4-methoxyphenyl)ethyl)imidazo[1,2-a]pyrazine-2-sulfonamide], the IC50 was 9330 nM.
Consider `CCN([C@H](c1ccc(F)cc1)C(F)(F)F)S(=O)(=O)c1ccnc2[nH]ccc12` [Example 175, (R)—N-ethyl-N-(2,2,2-trifluoro-1-(4-fluorophenyl)ethyl)-1H-pyrrolo[2,3-b]pyridine-4-sulfonamide], for which the IC50 is 302 nM.
Same read-out and setting: the figure for `CCN([C@H](c1ccc(OC(F)(F)F)cc1)C(F)(F)F)S(=O)(=O)c1cncc(C#N)c1` [Example 119, (R)-5-Cyano-N-ethyl-N-(2,2,2-trifluoro-1-(4-(trifluoromethoxy)phenyl)ethyl)pyridine-3-sulfonamide] is 87.1 nM.
On to `CCN([C@H](c1ccc(F)cc1)C(F)(F)F)S(=O)(=O)c1cc2cn[nH]c2cn1` [Example 167, (R)—N-ethyl-N-(2,2,2-trifluoro-1-(4-fluorophenyl)ethyl)-1H-pyrazolo[3,4-c]pyridine-5-sulfonamide], for which the IC50 was 331 nM.
Consider `CCN([C@@H](c1ccc(OC)cc1)C(F)(F)F)S(=O)(=O)c1cncc(F)c1` [Example 256, (S)—N-ethyl-5-fluoro-N-(2,2,2-trifluoro-1-(4-methoxyphenyl)ethyl)pyridine-3-sulfonamide], for which the IC50 is 4270 nM.
On the same count and under the same terms, for `CCN(C(c1ccc(F)cc1)C(F)(F)F)S(=O)(=O)c1nccs1` (centres unmarked) [Example 81, N-ethyl-N-(2,2,2-trifluoro-1-(4-fluorophenyl)ethyl)thiazole-2-sulfonamide] the value was 955 nM; for `CCN([C@H](c1ccc(F)cc1)C(F)(F)F)S(=O)(=O)c1cnc2cccnn12` [Example 176, (R)—N-ethyl-N-(2,2,2-trifluoro-1-(4-fluorophenyl)ethyl)imidazo[1,2-b]pyridazine-3-sulfonamide], 91.2 nM; for `CCN([C@@H](c1ccc(F)cc1)C(F)(F)F)S(=O)(=O)c1cncc(F)c1` [Example 260, (S)—N-ethyl-5-fluoro-N-(2,2,2-trifluoro-1-(4-fluorophenyl)ethyl)pyridine-3-sulfonamide], 3550 nM.
As for `CCN(C(c1ccc(F)cc1)C(F)(F)F)S(=O)(=O)c1ccc(C#N)s1` (centres unmarked) [Example 21, 5-cyano-N-ethyl-N-(2,2,2-trifluoro-1-(4-fluorophenyl)ethyl)thiophene-2-sulfonamide], the IC50 is 437 nM.
On to `CCN([C@H](c1ccc(F)cc1)C(F)(F)F)S(=O)(=O)c1ccc2nccn2c1` [Example 146, (R)—N-ethyl-N-(2,2,2-trifluoro-1-(4-fluorophenyl)ethyl)imidazo[1,2-a]pyridine-6-sulfonamide], for which the IC50 was 17.4 nM.
On to `CN([C@H](c1ccc(Cl)cc1)C(F)(F)F)S(=O)(=O)c1ccn2ccnc2c1` [Example 194, (R)—N-(1-(4-chlorophenyl)-2,2,2-trifluoroethyl)-N-methylimidazo[1,2-a]pyridine-7-sulfonamide], for which the IC50 was 240 nM.
As for `N#Cc1cncc(S(=O)(=O)N(CCF)[C@H](c2ccc(F)cc2)C(F)(F)F)c1` [Example 66, (R)-5-cyano-N-(2-fluoroethyl)-N-(2,2,2-trifluoro-1-(4-fluorophenyl)ethyl)pyridine-3-sulfonamide], the IC50 was 40.7 nM.
As for `CN(C(c1ccc(F)cc1)C(F)(F)F)S(=O)(=O)c1cncc(C#N)c1` (racemic) [Example 272, 5-Cyano-N-methyl-N-(2,2,2-trifluoro-1-(4-fluorophenyl)ethyl)pyridine-3-sulfonamide], the IC50 was 155 nM.
Take `Cc1ccc([C@@H](N(C)S(=O)(=O)c2cncc(C#N)c2)C(F)(F)F)cc1` [Example 225, (R)-5-cyano-N-methyl-N-(2,2,2-trifluoro-1-(p-tolyl)ethyl)pyridine-3-sulfonamide]: the IC50 was 105 nM.
Take `CN([C@H](c1ccc(Cl)cc1)C(F)(F)F)S(=O)(=O)c1cccnn1` [Example 209, (R)—N-(1-(4-chlorophenyl)-2,2,2-trifluoroethyl)-N-methylpyridazine-3-sulfonamide]: the IC50 was 191 nM.
In the case of `CN([C@H](c1ccc(F)cc1)C(F)(F)F)S(=O)(=O)c1cnc2ccnn2c1` [Example 183, (R)—N-methyl-N-(2,2,2-trifluoro-1-(4-fluorophenyl)ethyl)pyrazolo[1,5-a]pyrimidine-6-sulfonamide], the IC50 was 240 nM.
Turning to `COc1ccc([C@@H](N(C)S(=O)(=O)c2cncc(F)c2)C(F)(F)F)cc1` [Example 221, (R)-5-fluoro-N-methyl-N-(2,2,2-trifluoro-1-(4-methoxyphenyl)ethyl)pyridine-3-sulfonamide], the IC50 is 234 nM.
The same measure, in the same setting: for `Cc1ccc([C@@H](N(C)S(=O)(=O)c2cn3ccncc3n2)C(F)(F)F)cc1` [Example 197, (R)—N-methyl-N-(2,2,2-trifluoro-1-(p-tolyl)ethyl)imidazo[1,2-a]pyrazine-2-sulfonamide] the value was 6170 nM.

Another assay has as its system Human Cav2.3 channel. Description: Human Cav2.3 channel calcium-influx assay. In kind it is cell-based. The note with it: Fluo8 fluorescence, HEK-293 T-Rex/Kir2.1/Cav2.3e cells, without pluronic acid. Summed up: as §1
For the compound `CN([C@H](c1ccc(Cl)cc1)C(F)(F)F)S(=O)(=O)c1cnc2ncccn12` [Example 230, (R)—N-(1-(4-chlorophenyl)-2,2,2-trifluoroethyl)-N-methylimidazo[1,2-a]pyrimidine-3-sulfonamide], the “Cav2.3 (pIC50)” value is reported as 7.00.
On the same count and under the same terms, the figure for `CCN([C@H](c1ccc(F)cc1)C(F)(F)F)S(=O)(=O)c1ccc(F)s1` [Example 16, (R)—N-ethyl-5-fluoro-N-(2,2,2-trifluoro-1-(4-fluorophenyl)ethyl)thiophene-2-sulfonamide] is 5.78.
Consider `CCN([C@H](c1ccc(F)cc1)C(F)(F)F)S(=O)(=O)c1ccn2cnnc2c1` [Example 138, (R)—N-ethyl-N-(2,2,2-trifluoro-1-(4-fluorophenyl)ethyl)-[1,2,4]triazolo[4,3-a]pyridine-7-sulfonamide], for which the “Cav2.3 (pIC50)” value is recorded as 6.78.
Still for that read-out and setting: for `CCN([C@H](c1ccccc1F)C(F)(F)F)S(=O)(=O)c1cncc(C#N)c1` [Example 116, (R)-5-Cyano-N-ethyl-N-(2,2,2-trifluoro-1-(2-fluorophenyl)ethyl)pyridine-3-sulfonamide] the value was 5.81; for `CCN(C(c1ccc(F)cc1)C(F)(F)F)S(=O)(=O)C1CCOCC1` (centres unmarked) [Example 61, N-ethyl-N-(2,2,2-trifluoro-1-(4-fluorophenyl)ethyl)tetrahydro-2H-pyran-4-sulfonamide], 7.01.
In the case of `CCN(C(c1ccc(F)cc1)C(F)(F)F)S(=O)(=O)c1cccc(C#N)n1` (centres unmarked) [Example 30, 6-cyano-N-ethyl-N-(2,2,2-trifluoro-1-(4-fluorophenyl)ethyl)pyridine-2-sulfonamide], the “Cav2.3 (pIC50)” value stood at 6.62.
As to `CCN([C@@H](c1ccc(F)c(C)c1)C(F)(F)F)S(=O)(=O)c1cncc(C#N)c1` [Example 245, (S)-5-cyano-N-ethyl-N-(2,2,2-trifluoro-1-(4-fluoro-3-methylphenyl)ethyl)pyridine-3-sulfonamide], the “Cav2.3 (pIC50)” value is 5.70.
As for `CN([C@H](c1ccc(F)cc1)C(F)(F)F)S(=O)(=O)C1CCOCC1` [Example 132, (R)—N-methyl-N-(2,2,2-trifluoro-1-(4-fluorophenyl)ethyl)tetrahydro-2H-pyran-4-sulfonamide], the “Cav2.3 (pIC50)” value worked out at 6.05.
For the compound `CCN([C@@H](c1ccc(F)c(F)c1)C(F)(F)F)S(=O)(=O)c1cncc(C#N)c1` [Example 249, (S)-5-cyano-N-(1-(3,4-difluorophenyl)-2,2,2-trifluoroethyl)-N-ethylpyridine-3-sulfonamide], the “Cav2.3 (pIC50)” value came to 5.73.
For the compound `CCN([C@@H](c1ccc(F)cc1)C(F)(F)F)S(=O)(=O)c1cnc(C)nc1` [Example 76, (S)—N-ethyl-2-methyl-N-(2,2,2-trifluoro-1-(4-fluorophenyl)ethyl)pyrimidine-5-sulfonamide], the “Cav2.3 (pIC50)” value was found to be 5.31.
Regarding `Cc1ccc(S(=O)(=O)N(C)C(c2ccc(F)cc2)C(F)(F)F)s1` (centres unmarked) [Example 11, N,5-dimethyl-N-(2,2,2-trifluoro-1-(4-fluorophenyl)ethyl)thiophene-2-sulfonamide], the “Cav2.3 (pIC50)” value turned out to be 5.22.
Take `CCN([C@@H](c1cccc(OC)c1)C(F)(F)F)S(=O)(=O)c1cncc(C#N)c1` [Example 73, (S)-5-Cyano-N-ethyl-N-(2,2,2-trifluoro-1-(3-methoxyphenyl)ethyl)pyridine-3-sulfonamide]: the “Cav2.3 (pIC50)” value came to 5.50.
For the compound `CCN(C(c1ccc(F)cc1)C(F)(F)F)S(=O)(=O)C1CCCOC1` (centres unmarked) [Example 56, N-ethyl-N-(2,2,2-trifluoro-1-(4-fluorophenyl)ethyl)tetrahydro-2H-pyran-3-sulfonamide], the “Cav2.3 (pIC50)” value came to 6.92.
The same measure, in the same setting: for `CCN([C@@H](c1ccc(F)cc1)C(F)(F)F)S(=O)(=O)c1cncc(N2CCCC2)c1` [Example 97, (S)—N-ethyl-5-(pyrrolidin-1-yl)-N-(2,2,2-trifluoro-1-(4-fluorophenyl)ethyl)pyridine-3-sulfonamide] the value was 5.22; for `CCN([C@H](c1cccc(F)c1)C(F)(F)F)S(=O)(=O)c1cncc(C#N)c1` [Example 111, (R)-5-Cyano-N-ethyl-N-(2,2,2-trifluoro-1-(3-fluorophenyl)ethyl)pyridine-3-sulfonamide], 7.63; for `Cc1ncc(S(=O)(=O)N(C)[C@@H](c2ccc(F)cc2)C(F)(F)F)cn1` [Example 79, (S)—N,2-dimethyl-N-(2,2,2-trifluoro-1-(4-fluorophenyl)ethyl)pyrimidine-5-sulfonamide], 4.99.
In the case of `CCN([C@@H](c1cccc(C)c1)C(F)(F)F)S(=O)(=O)c1cncc(C#N)c1` [Example 115, (S)-5-cyano-N-ethyl-N-(2,2,2-trifluoro-1-(m-tolyl)ethyl)pyridine-3-sulfonamide], the “Cav2.3 (pIC50)” value is listed as 5.44.
